US12502433B2, “Phosphonate-drug conjugates” (Massachusetts Eye and Ear Infirmary, priority 2016, dated 2025)
Like-named read-outs stand apart in the source and are kept apart here. Values belong to the molecule of their own block, whether it stands above or below them.

Key:
ribbon synapses = assay: Ribbon synapse regeneration in organ of Corti explants after kainic acid; type: cell-based; conditions: 400 nM after two hours kainic acid
Method: To characterize the ability of DHF-RIS to regenerate ribbon synapses, a previously described organ of Corti explant system was used, wherein kainic acid was used to mimic excitotoxic damage to the ribbon synapse (see e.g., Wang et al, 7The Journal of Neuroscience: the official journal of the Society for Neuroscience, 2011, 31:7938-7949). Explants were treated with kainic acid for two hours to destroy synapses and then treated with 400 nM DHF, 400 nM RIS, or […] DHF-RIS (Example 1). Comparison was made with control samples not treated with kainic acid (KA−) and samples treated with kainic acid but no other drug (KA+). Synapses were detected by co-localization of CtBP2 and PSD95 as previously described and counted using the Amira program by an observer blinded to sample identity.

SG neurites = assay: In vitro attraction of SG neurites after pre-binding to hydroxyapatite; type: cell-based
Method: This assay was performed to confirm that the DHF moiety within DHF-RIS (Example 1) remained available to attract neurites from a distance after binding to hydroxyapatite, a mineral substitute for bone. In a modification of the data shown in FIG. 14A, a separate set of experiments was performed in which RIS-DHF was pre-bound to hydroxyapatite pellets. The pellets were washed with media, and plated along with SGN explants. To visualize the hydroxyapatite pellets, a small amount of 6-FAM-ZOL (Example 4) was added to all samples. It was observed that neurites traveled up to […] before ending on and overlapping with hydroxyapatite pellets, as shown in FIG. 14C.

spiral ganglion neurons = assay: In vitro spiral ganglion neurite outgrowth; type: cell-based, CBA/CaJ pups; conditions: 400 nM, 48 hours
Method: Cochleae were harvested from P3-4 CBA/CaJ pups, after which the spiral ganglion neurons were sharply dissected free in a clump of cells, divided into three roughly equal sections, and plated with fibronectin on Dulbecco's Modified Eagle's medium (DMEM). Individual sections were then treated with media alone, 400 nM DHF, 400 nM RIS, or 400 nM DHF-RIS (Example 1) for 48 hours. After fixing and immunostaining with TUJI, the neurites were visualized under confocal microscopy and the neurite length quantified using ImageJ.

[1] = humans, cited from earlier work
[2] = Hearing measurements (CAP, DPOAE) after cochleostomy infusion; type: in vivo, guinea pig
Method: For the cochleostomy experiments, compound action potentials (CAPs) from the auditory nerve were substituted for ABRs.
A cochleostomy was performed approximately 0.5 mm distal to the round window via a bullectomy approach and the PTFE tubing was inserted into the scala tympani. Dental cement was used to seal the cochleostomy around the tubing. Infusion was performed at 1 μL over one minute, five times, spaced nine minutes apart. Control animals were treated with AP alone; 0.02× dosage animals were infused with 6-FAM-ZOL at 0.25 μg/μL; and 0.04× dosage animals were infused with 6-FAM-ZOL at 0.125 μg/μL+0.193 μg/μL zoledronate (total 4% of the 1× human zoledronate dose by molar weight). DPOAEs and CAPs were measured at time 0 (i.e., after cannula insertion and prior to infusion) and at 3 hrs. In independent experiments, three control animals were treated with AP alone, four animals were treated with AP containing 0.02× 6-FAM-ZOL, and three animals were treated with AP containing 0.04× 6-FAM-ZOL+zoledronate.

[3] = Human temporal bone model: 6-FAM-ZOL delivery through the oval window
Method: 6-FAM-ZOL was synthesized as described in Example 4 and was dissolved in artificial perilymph (AP) at a concentration of 10 μg/μL. The content of AP (pH 7.4) was 130 mM NaCl, 3.5 mM KCl, 1.5 mM CaCl2, 5.5 mM glucose, and 20 mM HEPES.
Six freshly harvested cadaveric human temporal bones, which were obtained within 24 hours after death by the human temporal bone histopathology lab at Massachusetts Eye and Ear Infirmary, were used. The Pathology Quality Assurance Committee at Massachusetts General Hospital approved procurement of the specimens. The squamous and mastoid portions were drilled away, leaving the labyrinth. In three temporal bones, 1 μL of 10 μg/μL 6-FAM-ZOL was injected through the OW using a micropipette after lifting the stapes footplate. The footplate was then carefully laid back down. […]
Images (1024 by 1024; 8 bit) were collected using a Leica TCS-SP2 confocal microscope to generate maximum fluorescence images. To identify the surface of each specimen, the point of maximum fluorescence in the z-axis was first identified. A stack of images was then collected to a depth of 500 μm from the point of maximum fluorescence. […] ImageJ was used to quantify the amount of fluorescence associated with the labeled bisphosphonate within the lateral cochlear wall and the modiolus of the scala vestibuli and scala tympani at each half-turn, as shown in FIG. 11. […]

[4] = 6-FAM-ZOL infusion into the scala tympani via cochleostomy: cochlear fluorescence; type: in vivo, guinea pig
Method: All animals were therefore analyzed after maximal bisphosphonate deposition. […] Intracochlear delivery animals were analyzed at 3 hours as this timepoint allowed for high levels of delivery while avoiding the potential long-term effects of a cochleostomy.
The inner ears were harvested and stripped of soft tissue. All subsequent steps were performed in covered vials to prevent 6-FAM-ZOL bleaching. Specimens were fixed in an excess volume of neutral buffered formalin (10%, Fisher Scientific, Pittsburgh PA) at room temperature for 24 hours. The neutral buffered formalin was changed and fixation continued for another 24 hours. To prepare for resin embedding, specimens were dehydrated in an ascending series of ethanol (Fisher Scientific, 24 hr at 70%, 1 hr at 70%, 1 hr at 85%, 0.5 hr at 95%, 0.5 hr at 100%) followed by a wash in xylene (Fisher Scientific) and a 15 minute immersion in xylene. Specimens were cleared of xylene by a 1 hour infiltration in methyl methacrylate (MMA, Acrylosin soft, Dorn and Hart, Villa Park, IL) under vacuum. The MMA solution was changed and samples were infiltrated for 24 hours under vacuum. The infiltration solution was changed and the process was repeated for another 24 hours. Specimens were embedded in a solution of MMA containing 0.25% w/v (2.5 g/L) of perkadox-16 (Dom and Hart) for several hours under vacuum. […]
High-resolution images (1360 by 1024; 16 bit) were taken under FITC illumination (470/40 excitation, 4951p dicroic; 525/50 emission) using a Carl Zeiss Axiovert 200 Inverted Microscope. ImageJ (Rasband WS, ImageJ, United States National Institutes of Health, Bethesda, Maryland, USA, 1997-2014) was used to quantify the amount of fluorescence within the cochlear wall and modiolus at each half-turn, as shown in FIG. 1. Background fluorescence, defined as the average amount of fluorescence in an area of the resin block containing no sample, was subtracted from all measurements. […] Confocal images were collected over a depth of 500 μm to generate maximum fluorescence images. […]

[5] = Hearing measurements (ABR, DPOAE) after systemic 6-FAM-ZOL; type: in vivo, guinea pig
Method: ABRs were recorded via subdermal needle electrodes (vertex—ventrolateral to the pinna of the test ear with a ground at the base of the tail). The CAPs electrode was located near the round window niche. Sound level was incremented in 5 dB steps, from ˜10 dB below threshold to 90 dB sound pressure level (SPL). Threshold for ABRs and CAPs was defined as the lowest stimulus level at which a repeatable wave could be identified in the response waveform.
Distortion product otoacoustic emissions (DPOAEs) were recorded for primary tones (f1, f2) over the same f2 range of frequencies, with a frequency ratio of 1.2, and with the level of the f2 primary 10 dB less than f1 level. Primaries were incremented together in 5 dB steps from −10 dB below threshold to 80 dB SPL. Ear-canal sound pressure was amplified and digitally sampled, FFTs were computed and averaged, and the 2f1-f2 DPOAE and surrounding noise floor were extracted. Iso-response contours were interpolated from plots of response amplitude vs. sound level. Threshold is defined as the f1 level required to produce a DPOAE of −5 dB SPL.
Distortion product otoacoustic emissions (DPOAEs) and auditory brainstem responses (ABRs) were measured in the systemic and round window membrane (RWM) delivery experiments. […] Hearing was measured at 2.78, 4, 5.6, 8, 12, 16, 24, and 32 kHz. […]

[6] = type: in vivo
[7] = Round window membrane (RWM) alginate bead delivery of 6-FAM-ZOL: cochlear fluorescence; type: in vivo, guinea pig
Method: All animals were therefore analyzed after maximal bisphosphonate deposition. […] Round window delivery animals were analyzed at 3 weeks to allow middle ear inflammation to subside prior to hearing analysis and to account for transit across the RWM.
The inner ears were harvested and stripped of soft tissue. All subsequent steps were performed in covered vials to prevent 6-FAM-ZOL bleaching. Specimens were fixed in an excess volume of neutral buffered formalin (10%, Fisher Scientific, Pittsburgh PA) at room temperature for 24 hours. The neutral buffered formalin was changed and fixation continued for another 24 hours. To prepare for resin embedding, specimens were dehydrated in an ascending series of ethanol (Fisher Scientific, 24 hr at 70%, 1 hr at 70%, 1 hr at 85%, 0.5 hr at 95%, 0.5 hr at 100%) followed by a wash in xylene (Fisher Scientific) and a 15 minute immersion in xylene. Specimens were cleared of xylene by a 1 hour infiltration in methyl methacrylate (MMA, Acrylosin soft, Dorn and Hart, Villa Park, IL) under vacuum. The MMA solution was changed and samples were infiltrated for 24 hours under vacuum. The infiltration solution was changed and the process was repeated for another 24 hours. […]
High-resolution images (1360 by 1024; 16 bit) were taken under FITC illumination (470/40 excitation, 4951p dicroic; 525/50 emission) using a Carl Zeiss Axiovert 200 Inverted Microscope. ImageJ (Rasband WS, ImageJ, United States National Institutes of Health, Bethesda, Maryland, USA, 1997-2014) was used to quantify the amount of fluorescence within the cochlear wall and modiolus at each half-turn, as shown in FIG. 1. Background fluorescence, defined as the average amount of fluorescence in an area of the resin block containing no sample, was subtracted from all measurements. Fluorescence remained stable over at least two weeks after grinding if samples were kept in the dark at room temperature. […] Confocal images were collected over a depth of 500 μm to generate maximum fluorescence images. […]

[8] = Hearing measurements (ABR, DPOAE) after RWM 6-FAM-ZOL; type: in vivo, guinea pig
Source text: Acoustic stimuli were digitally generated and auditory responses were monitored using a National Instruments PXI stimulus generation/data acquisition system, which included a 24 bit digital I-O board (PXI-4461) and a 16 bit digital I-O board (PXI-6221) and the Eaton Peabody Laboratories Cochlear Function Test Suite. To elicit the auditory brainstem responses (ABRs) and the compound action potentials (CAPs), 5 ms tone pip stimuli were used with 0.5 ms rise/fall times (cosine squared) in alternating polarity at 33/s.
Acoustic stimuli were delivered via a custom acoustic assembly comprising two dynamic drivers as sound sources and a miniature electret microphone to measure sound pressure in situ (for a complete description, see e.g., http://www.masseyeandear.org/research/otolaryngology/investigators/laboratories/eaton-peabody-laboratories/ep1-engineering-resources). The response from the electrodes was amplified (10,000×), filtered (0.3-3 kHz bandpass), and averaged (512 samples at each frequency-level combination for ABRs and 128 samples for CAPs).
ABRs were recorded via subdermal needle electrodes (vertex—ventrolateral to the pinna of the test ear with a ground at the base of the tail). The CAPs electrode was located near the round window niche. […]
Distortion product otoacoustic emissions (DPOAEs) were recorded for primary tones (f1, f2) over the same f2 range of frequencies, with a frequency ratio of 1.2, and with the level of the f2 primary 10 dB less than f1 level. […]
Distortion product otoacoustic emissions (DPOAEs) and auditory brainstem responses (ABRs) were measured in the systemic and round window membrane (RWM) delivery experiments. […] Hearing was measured at 2.78, 4, 5.6, 8, 12, 16, 24, and 32 kHz.
The round window was visualized via a bullectomy approach and the beads were placed within the round window membrane (RWM) niche under direct microscopic visualization. […] DPOAEs and ABRs were first measured while animals were under anesthesia prior to bullectomy and again prior to analysis.

[9] = 0.02× cochleostomy infusion, 3 hrs, relative to control animals
[10] = systemic 1× and 3× doses, 48 hrs
[11] = 1× systemic dose (0.185 mg/kg IP), 48 hrs
[12] = control, 1× and 3× systemic doses
[13] = three weeks after placement on the RWM

Structure (SMILES): O=P(O)(O)C(O)(Cc1cccnc1)P(=O)(O)O [RIS, reference compound]
regeneration of ribbon synapses (ribbon synapses): some ability to regenerate synapses

attraction of SG neurites after pre-binding to hydroxyapatite (SG neurites; in vitro): available to attract SG neurites
Structure (SMILES): O=C(CCOCCOCCOCCOCCNC(=O)c1ccc(-c2cc(=O)c3ccc(O)c(O)c3o2)cc1)NCC(O)C[n+]1cccc(CC(O)(P(=O)(O)O)P(=O)(O)O)c1 (stereo not drawn) [DHF-RIS]
distance neurites traveled before ending on hydroxyapatite pellets (SG neurites; conjugate pre-bound to hydroxyapatite pellets): up to 400 μM
neurite outgrowth (neurite length) (spiral ganglion neurons): significant outgrowth
regeneration of ribbon synapses (ribbon synapses): significant regeneration compared to non-rescued explants, although less than native DHF

Structure (SMILES): O=P(O)(O)C(O)(Cn1ccnc1)P(=O)(O)O [zoledronate]
drug remaining in plasma ([1]; after 24 hours): less than 1%
plasma half-life ([1]; first of two half-lives): 12 min
plasma half-life ([1]; second of two half-lives): 84 min

Structure (SMILES): O=C(NCC(O)C[n+]1ccn(CC(O)(P(=O)(O)O)P(=O)(O)O)c1)c1ccc(C(=O)O)c(-c2c3ccc(=O)cc-3oc3cc(O)ccc23)c1 (stereo not drawn) [Example 6-FAM-ZOL]
additional CAP shift [2, 9]: 10-15 dB
additional DPOAE shift [2, 9]: 10-15 dB
immediate ototoxicity ([2]; direct infusion into the cochlea): without significant immediate ototoxicity
fluorescent signal in bony walls of the vestibular capsule and the cochlea ([3]; 1 μL of 10 μg/μL through the oval window, 4 days): strong fluorescent signal
effect of dose (6-FAM-ZOL vs artificial perilymph) on fluorescence, lateral wall and modiolus, scala vestibuli and scala tympani ([3]; all p<0.05): significant effect of dose
total average fluorescence of the lateral wall vs control ([4]; 0.2× dose (so in the source)): significantly greater
total average fluorescence of the modiolus vs control ([4]; 0.2× treatment (so in the source)): significantly greater
fluorescent signal along osseous spiral lamina of the modiolus and lateral wall of the cochlea ([4]; 2% (0.02×) of the 1× systemic dose, 3 hours): bright fluorescent signal
ABR change [5, 10]: No significant physiological changes
DPOAE change [5, 10]: No significant physiological changes
ototoxicity ([5]; systemic treatment): non-ototoxic
average fluorescence stronger in tibiae compared to cochleae ([6]; 1× systemic dose): 50%
average fluorescence above control, cochleae [6, 11]: approximately 5,800 fluorescence units
average fluorescence above control, tibiae [6, 11]: ~8,800 fluorescence units
fluorescence in lateral wall of cochleae [6, 12]: increased with dose and the differences were statistically significant
fluorescence in tibiae [6, 12]: dose-dependent and statistically significant
cochlear fluorescence ([7]; 0.1× dose on RWM, 3 weeks): lower, but still detectable
delivery throughout the lateral wall of the cochlea (fluorescence) ([7]; 0.3× dose in alginate bead on RWM, 3 weeks): comparable to the 1× systemic dose
levels of fluorescence in modiolus and lateral wall vs control ([7]; RWM delivery 0.1× and 0.3×): significantly higher than the control
ototoxicity ([8]; local delivery onto the RWM): not ototoxic
ABR shift [8, 13]: no shifts
DPOAE shift [8, 13]: no shifts
